Experimental data: patent EP4389751A1, “HETEROCYCLIC COMPOUNDS AND USES THEREOF” (Kumquat Biosciences Inc., priority 2021, dated 2024)

What was measured:
A549 cells = assay: Cell proliferation assay (CellTiter-Glo), K-Ras G12S cells; type: cell-based; details: Homo sapiens, A549, A549 cells (K-Ras G12S); bin 500 nM to 5 µM; read-out: Inhibition of A549 Cells (IC50)
Description: A549 (ATCC CRL-185) and LS123 (ATCC CRL-255) cell lines comprise a G12S mutation and can be used to assess Ras cellular signaling in vitro, e.g., in response to the compounds herein. A549 culture medium is prepared with RPMI-1640 and 10% heat-inactivated FBS. LS123 culture medium is prepared with RPMI-1640 and 10% heat-inactivated FBS. A CellTiter-Glo (CTG) luminescent based assay (Promega) is used to assess growth of the cells, as a measurement of the ability of the compounds herein to inhibit Ras signaling in the cells. The cells (e.g., 800 per well) are seeded in their respective culture medium in standard tissue culture-treated 384-well format plates (Falcon #08-772-116) or ultra-low attachment surface 384-well format plates (S-Bio # MS-9384WZ). The day after plating, cells are treated with a dilution series (e.g., a 10 point 3-fold dilution series) of the compounds herein (e.g., approximately 40 µl final volume per well). Cell viability can be monitored (e.g., approximately 6 days later) according to the manufacturer's recommended instructions, where the CellTiter-Glo reagent is added (e.g., approximately 10 µl), vigorously mixed, covered, and placed on a plate shaker (e.g., approximately for 20 min) to ensure sufficient cell lysis prior to assessment of luminescent signal. The IC50 values are determined using the four parameter fit. The resulting IC50 value is a measurement of the ability of the compounds herein to reduce cell growth of Ras-driven cells (e.g., tumor cell lines) in vitro and/or in vivo.

K-Ras G12S = target: T1, K-Ras G12S (Homo sapiens, UniProt P01116, G12S); assay: HTRF assay of the K-Ras / SOS1 interaction; type: biochemical; details: IC50 (against K-Ras G12D) to IC50 (against K-Ras G12S)
T1 construct: made in house; host or cells: E. coli (e.g., BL21 (DE3))
How it was run: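 GST-K-Ras G12S with anti-GST-Eu donor and His-hSOS1 with anti-6His-XL665 acceptor in ~5 mM HEPES pH 7.4, ~150 mM NaCl, 1 mM DTT, 0.05% BSA, 0.0025% Igepal. Read after ~10 min or longer; IC50 from 665/620 nm ratio, duplicates at 10 µM down to 0.01 µM.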

GP2D cells = assay: Cell proliferation assay (CellTiter-Glo), K-Ras G12D cells; type: cell-based; details: GP2D cells (K-Ras G12D); read-out: Inhibition of GP2D Cells (IC50)
How it was run: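 GP2D (K-Ras G12D) cells seeded in DMEM with 2 mM glutamine and 10% FBS, then dosed next day with a dilution series (e.g., 9-point 3-fold). Viability read by CellTiter-Glo luminescence after about 5 days. IC50 from four-parameter fit.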

[1] = target: T2, KRAS protein (His-tagged GDP-loaded G12S 1-169) (Homo sapiens, UniProt P01116, G12S); assay: Covalent modification of KRAS protein, intact-protein LC-MS; type: binding; details: 24hrs at room temperature, KRAS protein ~2 µM
T2 construct: His-tagged GDP-loaded G12S 1-169
How it was run: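 His-tagged GDP-loaded KRAS 1-169 (~2 µM) incubated with compound 24 h at room temperature, then quenched with formic acid. Intact-protein LC-ESI-MS on C4 column; deconvoluted peak intensities of unmodified and adducted protein give percent covalent modification.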

SMILES	IC50 (A549 cells)	Ratio of IC50 KRAS G12D vs. IC50 KRAS G12S (K-Ras G12S)	IC50 (GP2D cells)	% G12S Modification at 24 hr. [1]
N#Cc1c(N)sc2c(F)ccc(-c3c(Cl)cc4c(N5CCC6CN(C(=O)Nc7ncccn7)CCC65)nc(OC[C@@]56CCCN5C[C@H](F)C6)nc4c3F)c12 (single isomer, unassigned) [Compound A271]	500 to 5000 nM	A (A: indicates that the ratio of IC50 against KrasG12D vs. IC50 against KrasG12S is 1-fold or greater)	–	–
Nc1nc2c(-c3c(Cl)cc4c(N5CC6(CCCN(C(=O)n7cncn7)C6)C5)nc(OC[C@@]56CCCN5C[C@H](F)C6)nc4c3F)ccc(F)c2s1 [Compound A230, (2-(7-(2-amino-7-fluorobenzo[d]thiazol-4-yl)-6-chloro-8-fluoro-2-(((2R,7aS)-2-fluorotetrahydro-1H-pyrrolizin-7a(5H)-yl)methoxy)quinazolin-4-yl)-2,6-diazaspiro[3.5]nonan-6-yl)(1H-1,2,4-triazol-1-yl)methanone]	–	A (A: indicates that the ratio of IC50 against KrasG12D vs. IC50 against KrasG12S is 1-fold or greater)	1000 to 10000 nM	+++ (+++ indicates greater than 20% labelling)
Nc1nc2c(-c3c(Cl)cc4c(N5CCOC6(CCN(C(=O)n7cncn7)CC6)C5)nc(OCC56CCCN5C[C@H](F)C6)nc4c3F)ccc(F)c2s1 (stereo partly drawn) [Compound A243, (4-(7-(2-amino-7-fluorobenzo[d]thiazol-4-yl)-6-chloro-8-fluoro-2-(((2R)-2-fluorotetrahydro-1H-pyrrolizin-7a(5H)-yl)methoxy)quinazolin-4-yl)-1-oxa-4,9-diazaspiro [5.5]undecan-9-yl)(1H-1,2,4-triazol-1-yl)methanone]	–	A (A: indicates that the ratio of IC50 against KrasG12D vs. IC50 against KrasG12S is 1-fold or greater)	1000 to 10000 nM	+++ (+++ indicates greater than 20% labelling)
N#Cc1cnn(C(=O)N2CCN(c3nc(OC[C@@]45CCCN4C[C@H](F)C5)nc4c(F)c(-c5ccc(F)c6sc(N)nc56)c(Cl)cc34)CC2)c1 [Compound A252, 1-(4-(7-(2-amino-7-fluorobenzo[d]thiazol-4-yl)-6-chloro-8-fluoro-2-(((2R,7aS)-2-fluorotetrahydro-1H-pyrrolizin-7a(5H)-yl)methoxy)quinazolin-4-yl)piperazine-1-carbonyl)-1H-pyrazole-4-carbonitrile]	–	A (A: indicates that the ratio of IC50 against KrasG12D vs. IC50 against KrasG12S is 1-fold or greater)	1000 to 10000 nM	+++ (+++ indicates greater than 20% labelling)
N#Cc1c(N)sc2c(F)ccc(-c3c(Cl)cc4c(N5CC6(CCCN(C(=O)n7cncn7)C6)C5)nc(OC[C@@]56CCCN5C[C@H](F)C6)nc4c3F)c12 [Compound A266, 4-(4-(6-(1H-1,2,4-triazole-1-carbonyl)-2,6-diazaspiro[3.5]nonan-2-yl)-6-chloro-8-fluoro-2-(((2R,7aS)-2-fluorotetrahydro-1H-pyrrolizin-7a(5H)-yl)methoxy)quinazolm-7-yl)-2-amino-7-fluorobenzo[b]thiophene-3-carbonitrile]	–	A (A: indicates that the ratio of IC50 against KrasG12D vs. IC50 against KrasG12S is 1-fold or greater)	1000 to 10000 nM	+++ (+++ indicates greater than 20% labelling)
Nc1nc2c(-c3c(Cl)cc4c(N5CC6(CN(C(=O)n7cncn7)CCO6)C5)nc(OC[C@@]56CCCN5C[C@H](F)C6)nc4c3F)ccc(F)c2s1 [Compound A268, (2-(7-(2-amino-7-fluorobenzo[d]thiazol-4-yl)-6-chloro-8-fluoro-2-(((2R,7aS)-2-fluorotetrahydro-1H-pyrrolizin-7a(5H)-yl)methoxy)quinazolin-4-yl)-5-oxa-2,8-diazaspiro[3.5]nonan-8-yl)(1H-1,2,4-triazol-1-yl)methanone]	–	A (A: indicates that the ratio of IC50 against KrasG12D vs. IC50 against KrasG12S is 1-fold or greater)	1000 to 10000 nM	+++ (+++ indicates greater than 20% labelling)
N#Cc1c(N)sc2c(F)ccc(-c3c(Cl)cc4c(N5CCCC6(CCN(C(=O)n7cncn7)C6)C5)nc(OC[C@@]56CCCN5C[C@H](F)C6)nc4c3F)c12 (stereo partly drawn) [Compound A269, 4-(4-(2-(1H-1,2,4-triazole-1-carbonyl)-2,7-diazaspiro[4.5]decan-7-yl)-6-chloro-8-fluoro-2-(((2R,7aS)-2-fluorotetrahydro-1H-pyrrolizin-7a(5H)-yl)methoxy)quinazolin-7-yl)-2-amino-7-fluorobenzo[b]thiophene-3-carbonitrile]	–	A (A: indicates that the ratio of IC50 against KrasG12D vs. IC50 against KrasG12S is 1-fold or greater)	1000 to 10000 nM	++ (++ indicates between about 1%- 20% labelling)
Nc1nc2c(-c3c(Cl)cc4c(N5CCOC6(CN(C(=O)n7cncn7)C6)C5)nc(OC[C@@]56CCCN5C[C@H](F)C6)nc4c3F)ccc(F)c2s1 [Compound A273, (8-(7-(2-amino-7-fluorobenzo[d]thiazol-4-yl)-6-chloro-8-fluoro-2-(((2R,7aS)-2-fluorotetrahydro-1H-pyrrolizin-7a(5H)-yl)methoxy)quinazolin-4-yl)-5-oxa-2,8-diazaspiro[3.5]nonan-2-yl)(1H-1,2,4-triazol-1-yl)methanone]	–	A (A: indicates that the ratio of IC50 against KrasG12D vs. IC50 against KrasG12S is 1-fold or greater)	1000 to 10000 nM	+++ (+++ indicates greater than 20% labelling)
Nc1nc2c(-c3c(Cl)cc4c(N5CC6(CCN(C(=O)n7cncn7)C6)C5)nc(OC[C@@]56CCCN5C[C@H](F)C6)nc4c3F)ccc(F)c2s1 [Compound A279, (2-(7-(2-amino-7-fluorobenzo[d]thiazol-4-yl)-6-chloro-8-fluoro-2-(((2R,7aS)-2-fluorotetrahydro-1H-pyrrolizin-7a(5H)-yl)methoxy)quinazolin-4-yl)-2,6-diazaspiro[3.4]octan-6-yl)(1H-1,2,4-triazol-1-yl)methanone]	–	A (A: indicates that the ratio of IC50 against KrasG12D vs. IC50 against KrasG12S is 1-fold or greater)	1000 to 10000 nM	+++ (+++ indicates greater than 20% labelling)
N#Cc1c(N)sc2c(F)ccc(-c3c(Cl)cc4c(N5CCN(C(=O)n6cncn6)CC(F)(F)C5)nc(OC[C@@]56CCCN5C[C@H](F)C6)nc4c3F)c12 [Compound A280, 2-amino-4-(6-chloro-4-(6,6-difluoro-4-(1H-1,2,4-triazole-1-carbonyl)-1,4-diazepan-1-yl)-8-fluoro-2-(((2R,7aS)-2-fluorotetrahydro-1H-pyrrolizin-7a(5H)-yl)methoxy)quinazolin-7-yl)-7-fluorobenzo[b]thiophene-3-carbonitrile]	–	A (A: indicates that the ratio of IC50 against KrasG12D vs. IC50 against KrasG12S is 1-fold or greater)	≤ 1000 nM	+++ (+++ indicates greater than 20% labelling)
CC1(C)CN(c2nc(OC[C@@]34CCCN3C[C@H](F)C4)nc3c(F)c(-c4ccc(F)c5sc(N)c(C#N)c45)c(Cl)cc23)CC2(CN(C(=O)n3cncn3)C2)O1 [Compound A296, 2-amino-4-(6-chloro-4-(6,6-dimethyl-2-(1H-1,2,4-triazole-1-carbonyl)-5-oxa-2,8-diazaspiro[3.5]nonan-8-yl)-8-fluoro-2-(((2R,7aS)-2-fluorotetrahydro-1H-pyrrolizin-7a(5H)-yl)methoxy)quinazolin-7-yl)-7-fluorobenzo[b]thiophene-3-carbonitrile]	–	A (A: indicates that the ratio of IC50 against KrasG12D vs. IC50 against KrasG12S is 1-fold or greater)	1000 to 10000 nM	+++ (+++ indicates greater than 20% labelling)
